Drawing on ChEMBL document CHEMBL5649166, “RIP3 induces apoptosis independent of pronecrotic kinase activity” (Mol Cell, 2014), this text covers inhibition, Activity and residual activity for two compounds.

For data set [1], the system named is L929. Kind of data set: Inhibition of TLR-3 induced necroptosis in mouse L929 cells assessed as increase in cell viability at higher concentration incubated for 18 hrs in presence of poly(I:C) by Cell Titer-Glo luminescent cell viability assay. It counts as functional, cell-based. On the technique in general: In ATP-based viability assays light output follows the ATP content of the culture.

The test system of another data set is SVEC4-10. Kind of data set: Inhibition of DAI-induced necroptosis in wildtype MCMV infected mouse SVEC4-10 cells assessed as increase in cell viability at 10 uM incubated for 18 hrs in presence of zVAD by Cell Titer-Glo luminescent cell viability assay. It counts as functional, cell-based.
Data set [2] relates to 3T3SA. Nature of the data set: Inhibition of TNF-alpha induced necroptosis in mouse 3T3SA cells at 10 uM incubated for 18 hrs in presence of zVAD by SYTOX green uptake assay. In kind it is functional, cell-based.
Data set [3] deals with 3T3SA. Kind of data set: Induction of apoptosis in mouse 3T3SA cells assessed as accumulation of cleaved caspase-3 by measuring percentage of cleaved caspase-3 positive cells measured after 2.5 hrs by immunoblot analysis (reference value: 4%). In kind it is toxicity, cell-based. In general terms: Immunoblotting shows a protein as a band on a membrane.
Data set [4] has as its system 3T3SA. Nature of the data set: Induction of apoptosis in mouse 3T3SA cells assessed as increase in caspase3/7 proteolytic activity incubated for 2.5 hrs. It counts as toxicity, cell-based.
Data set [5] concerns 3T3SA. Nature of the data set: Induction of apoptosis in mouse 3T3SA cells assessed as membrane blebbing incubated for 2.5 hrs. In kind it is toxicity, cell-based.
The subject of data set [6] is 3T3SA. Kind of data set: Induction of apoptosis in mouse 3T3SA cells assessed as cell morphological changes incubated for 2.5 hrs by transmission electron microscopic analysis. In kind it is toxicity, cell-based.
The test system of data set [7] is 3T3SA. Nature of the data set: Induction of apoptosis in mouse 3T3SA cells assessed as accumulation of cleaved caspase-3 by measuring percentage of cleaved caspase-3 positive cells measured after 2.5 hrs in presence of zVAD by immunoblot analysis (reference value: 4%). It counts as toxicity, cell-based.
For data set [8], the system named is L929. Nature of the data set: Induction of apoptosis in mouse L929 cells transfected with RIP3 shRNA at 10 uM incubated for 18 hrs by Cell Titer-Glo luminescent cell viability assay. Particulars: l929, 18 h. In kind it is toxicity, cell-based.
In data set [9] the test system is MEF. Nature of the data set: Induction of apoptosis in RIP3-/- MEF cells incubated for 18 hrs by Cell Titer-Glo luminescent cell viability assay. The following applies: mouse. It counts as toxicity, cell-based.
Data set [10] concerns 3T3SA. Nature of the data set: Induction of apoptosis in mouse 3T3SA cells transfected with RIP3 shRNA assessed as increase in caspase3/7 proteolytic activity incubated for 4 hrs. In kind it is toxicity, cell-based.
Data set [11] deals with 3T3SA. Nature of the data set: Induction of apoptosis in mouse 3T3SA cells incubated for 18 hrs in presence of zVAD by Cell Titer-Glo luminescent cell viability assay. It counts as toxicity, cell-based.
Data set [12] relates to 3T3SA. Kind of data set: Induction of apoptosis in mouse 3T3SA cells incubated for 18 hrs in presence of zYVAD by Cell Titer-Glo luminescent cell viability assay. In kind it is toxicity, cell-based.
The test system of data set [13] is 3T3SA. Nature of the data set: Induction of apoptosis in mouse 3T3SA cells assessed as cleaved caspase 8 accumulation incubated for 2.5 hrs by immunoblot analysis. In kind it is toxicity, cell-based.
The subject of data set [14] is MEF. Nature of the data set: Induction of apoptosis in MEF cells expressing RIP1 K45A/K45A mutant incubated for 18 hrs by Cell Titer-Glo luminescent cell viability assay. It counts as toxicity, cell-based. The following applies: mouse.
Data set [15] has as its system 3T3SA. Nature of the data set: Inhibition of necroptosis in mouse 3T3SA cells incubated for 18 hrs in presence of Nec-1 by Cell Titer-Glo luminescent cell viability assay. It counts as functional, cell-based.
The subject of data set [16] is MEF. Nature of the data set: Induction of apoptosis in […] MEF cells incubated for 18 hrs by Cell Titer-Glo luminescent cell viability assay. It counts as toxicity, cell-based. The following applies: mouse.
In data set [17] the test system is MEF. Nature of the data set: Induction of apoptosis in cFLIPL-/- MEF cells incubated for 18 hrs by Cell Titer-Glo luminescent cell viability assay. It counts as toxicity, cell-based. The following applies: mouse.
Data set [18] concerns MEF. Nature of the data set: Induction of apoptosis in cFLIPL-/- MEF cells transfected with cFLIPL expressing retrovirus incubated for 18 hrs by Cell Titer-Glo luminescent cell viability assay. In kind it is toxicity, cell-based. Particulars: mouse.
Data set [19] deals with MEF. Nature of the data set: Induction of apoptosis in cFLIPL-/- MEF cells transfected with cFLIPL expressing retrovirus assessed as increase in caspase 8 proteolytic activity incubated for 4 hrs. It counts as toxicity, cell-based. The following applies: mouse.
In data set [20] the target is Nuclear factor NF-kappa-B complex (Homo sapiens) (UniProt Q00653+P19838+Q04206). Kind of data set: Activation of NFkappaB (unknown origin) transfected in mouse 3T3SA cells incubated for 2.5 hrs. In kind it is cell-based. Particulars: filed as activator.
Sequence of Nuclear factor NF-kappa-B complex (Homo sapiens) (P19838 whole entry, looked up): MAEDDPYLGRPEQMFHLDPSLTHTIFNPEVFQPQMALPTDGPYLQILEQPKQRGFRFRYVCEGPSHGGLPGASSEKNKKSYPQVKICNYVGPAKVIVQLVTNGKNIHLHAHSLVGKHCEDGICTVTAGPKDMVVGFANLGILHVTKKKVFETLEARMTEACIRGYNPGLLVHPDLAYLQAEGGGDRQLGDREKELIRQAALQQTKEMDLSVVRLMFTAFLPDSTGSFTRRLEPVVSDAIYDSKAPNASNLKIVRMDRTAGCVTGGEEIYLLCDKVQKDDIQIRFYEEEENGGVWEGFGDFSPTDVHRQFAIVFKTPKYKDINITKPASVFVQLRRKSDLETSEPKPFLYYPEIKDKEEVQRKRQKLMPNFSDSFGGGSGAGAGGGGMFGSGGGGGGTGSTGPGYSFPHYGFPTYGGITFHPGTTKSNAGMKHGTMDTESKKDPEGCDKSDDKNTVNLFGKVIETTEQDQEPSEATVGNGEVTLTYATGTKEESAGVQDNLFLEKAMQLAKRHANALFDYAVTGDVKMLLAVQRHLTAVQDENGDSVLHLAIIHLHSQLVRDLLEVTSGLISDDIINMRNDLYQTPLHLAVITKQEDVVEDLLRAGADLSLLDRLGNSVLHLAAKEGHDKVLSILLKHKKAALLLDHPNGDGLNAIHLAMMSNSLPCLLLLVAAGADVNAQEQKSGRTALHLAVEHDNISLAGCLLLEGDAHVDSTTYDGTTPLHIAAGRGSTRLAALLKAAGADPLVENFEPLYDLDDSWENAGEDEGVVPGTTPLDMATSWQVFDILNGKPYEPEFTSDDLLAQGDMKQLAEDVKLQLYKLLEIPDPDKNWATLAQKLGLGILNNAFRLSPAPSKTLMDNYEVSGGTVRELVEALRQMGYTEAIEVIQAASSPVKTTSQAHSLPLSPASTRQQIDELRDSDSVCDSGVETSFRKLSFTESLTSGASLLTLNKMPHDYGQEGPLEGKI
Sequence of Nuclear factor NF-kappa-B complex (Homo sapiens) (Q00653 whole entry, looked up): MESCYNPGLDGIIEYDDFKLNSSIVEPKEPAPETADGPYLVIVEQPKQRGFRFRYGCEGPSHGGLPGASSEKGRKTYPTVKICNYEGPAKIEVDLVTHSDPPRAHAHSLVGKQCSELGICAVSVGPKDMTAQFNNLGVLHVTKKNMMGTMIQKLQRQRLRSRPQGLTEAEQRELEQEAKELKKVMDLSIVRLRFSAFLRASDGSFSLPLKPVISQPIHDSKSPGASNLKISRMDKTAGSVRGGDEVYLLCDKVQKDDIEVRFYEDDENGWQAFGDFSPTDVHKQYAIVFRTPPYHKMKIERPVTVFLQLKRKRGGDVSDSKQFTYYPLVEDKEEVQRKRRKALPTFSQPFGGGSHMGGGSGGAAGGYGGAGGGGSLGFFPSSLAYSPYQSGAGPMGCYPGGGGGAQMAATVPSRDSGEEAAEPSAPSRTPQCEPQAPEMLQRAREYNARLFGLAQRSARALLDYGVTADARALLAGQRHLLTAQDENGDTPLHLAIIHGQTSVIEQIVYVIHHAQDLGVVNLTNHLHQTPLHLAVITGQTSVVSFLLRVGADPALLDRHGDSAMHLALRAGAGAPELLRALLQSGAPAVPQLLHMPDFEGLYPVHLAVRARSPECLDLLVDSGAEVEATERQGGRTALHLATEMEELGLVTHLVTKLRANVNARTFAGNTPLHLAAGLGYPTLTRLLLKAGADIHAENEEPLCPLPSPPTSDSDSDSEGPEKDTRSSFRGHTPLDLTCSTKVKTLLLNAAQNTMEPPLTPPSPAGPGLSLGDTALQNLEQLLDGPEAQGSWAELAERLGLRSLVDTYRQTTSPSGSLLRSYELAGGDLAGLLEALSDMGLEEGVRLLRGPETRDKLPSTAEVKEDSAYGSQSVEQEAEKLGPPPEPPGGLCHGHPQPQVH
Sequence of Nuclear factor NF-kappa-B complex (Homo sapiens) (Q04206 whole entry, looked up): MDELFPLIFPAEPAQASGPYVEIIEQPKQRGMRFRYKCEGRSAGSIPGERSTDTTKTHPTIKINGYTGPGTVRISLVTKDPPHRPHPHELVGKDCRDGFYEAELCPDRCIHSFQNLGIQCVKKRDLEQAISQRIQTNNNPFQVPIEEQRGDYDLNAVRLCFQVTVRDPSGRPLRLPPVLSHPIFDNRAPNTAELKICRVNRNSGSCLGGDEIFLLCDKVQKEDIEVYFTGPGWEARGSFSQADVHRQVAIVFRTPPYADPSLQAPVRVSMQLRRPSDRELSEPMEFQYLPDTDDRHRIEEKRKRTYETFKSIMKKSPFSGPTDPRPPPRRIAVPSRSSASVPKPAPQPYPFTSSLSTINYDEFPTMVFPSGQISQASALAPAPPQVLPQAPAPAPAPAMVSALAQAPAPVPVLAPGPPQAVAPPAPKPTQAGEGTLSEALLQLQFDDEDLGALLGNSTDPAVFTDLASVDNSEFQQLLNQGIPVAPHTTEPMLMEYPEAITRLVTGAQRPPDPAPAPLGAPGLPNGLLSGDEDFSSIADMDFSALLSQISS
The test system of data set [21] is MEF. Kind of data set: Induction of apoptosis in RIP3-/- MEF cells transfected with RIP3 K51A mutant incubated for 18 hrs by Cell Titer-Glo luminescent cell viability assay. It counts as toxicity, cell-based. Particulars: mouse.
The subject of data set [22] is 3T3SA. Nature of the data set: Induction of apoptosis in RIP3shRNA transfected mouse 3T3SA cells co-transfected with shRNA-resistant RIP3 D161N mutant pre-tranfected for 16 hrs followed by compound addition and measured after 18 hrs in presence of zVAD by Cell Titer-Glo luminescent cell viability assay. In kind it is toxicity, cell-based.
For data set [23], the system named is 3T3SA. Kind of data set: Induction of apoptosis in RIP3shRNA transfected mouse 3T3SA cells co-transfected with shRNA-resistant RIP3 D161G mutant pre-tranfected for 16 hrs followed by compound addition and measured after 18 hrs in presence of zVAD by Cell Titer-Glo luminescent cell viability assay. In kind it is toxicity, cell-based.
The subject of data set [24] is 3T3SA. Nature of the data set: Induction of apoptosis in RIP3shRNA transfected mouse 3T3SA cells co-transfected with shRNA-resistant RIP3 mutRHIM pre-tranfected for 16 hrs followed by compound addition and measured after 18 hrs in presence of zVAD by Cell Titer-Glo luminescent cell viability assay. In kind it is toxicity, cell-based.
Data set [25] has as its system 3T3SA. Kind of data set: Induction of apoptosis in vICA expression plasmid transfected mouse 3T3SA cells co-transfected with shRNA-resistant empty vector incubated for 12 hrs by Cell Titer-Glo luminescent cell viability assay. It counts as toxicity, cell-based.
Data set [26] relates to 3T3SA. Kind of data set: Induction of apoptosis in vICA expression plasmid transfected mouse 3T3SA cells co-transfected with shRNA-resistant RIP3 D161G mutant incubated for 12 hrs by Cell Titer-Glo luminescent cell viability assay. In kind it is toxicity, cell-based.
Data set [27] relates to 3T3SA. Nature of the data set: Induction of apoptosis in mouse 3T3SA cells in presence of vIRA by Cell Titer-Glo luminescent cell viability assay. It counts as toxicity, cell-based.
Data set [28] concerns MEF. Kind of data set: Induction of apoptosis in RIP3-/- MEF cells expressing dox-induced wildtype RIP3 assessed as RIP1-RPI3 association incubated for 1 hrs by immunoblot analysis. In kind it is toxicity, cell-based. The following applies: mouse.
Data set [29] relates to MEF. Kind of data set: Induction of apoptosis in RIP3-/- MEF cells expressing dox-induced RIP3 K51A mutant assessed as RIP1-FADD association incubated for 1 hrs by immunoblot analysis. In kind it is toxicity, cell-based. The following applies: mouse.
Data set [30] relates to MEF. Nature of the data set: Induction of apoptosis in RIP3-/- MEF cells expressing dox-induced RIP3 K51A mutant assessed as RIP1-RIP3 association incubated for 1 hrs by immunoblot analysis. It counts as toxicity, cell-based. Particulars: mouse.
Data set [31] deals with Serine/threonine-protein kinase ULK1 (Homo sapiens) (UniProt O75385). Kind of data set: Inhibition of human ULK1 using myelin basic protein as substrate at 1 uM in presence of 32P-ATP by Hotspot assay relative to control; values are per cent of control.
Sequence of Serine/threonine-protein kinase ULK1 (Homo sapiens) (O75385 whole entry): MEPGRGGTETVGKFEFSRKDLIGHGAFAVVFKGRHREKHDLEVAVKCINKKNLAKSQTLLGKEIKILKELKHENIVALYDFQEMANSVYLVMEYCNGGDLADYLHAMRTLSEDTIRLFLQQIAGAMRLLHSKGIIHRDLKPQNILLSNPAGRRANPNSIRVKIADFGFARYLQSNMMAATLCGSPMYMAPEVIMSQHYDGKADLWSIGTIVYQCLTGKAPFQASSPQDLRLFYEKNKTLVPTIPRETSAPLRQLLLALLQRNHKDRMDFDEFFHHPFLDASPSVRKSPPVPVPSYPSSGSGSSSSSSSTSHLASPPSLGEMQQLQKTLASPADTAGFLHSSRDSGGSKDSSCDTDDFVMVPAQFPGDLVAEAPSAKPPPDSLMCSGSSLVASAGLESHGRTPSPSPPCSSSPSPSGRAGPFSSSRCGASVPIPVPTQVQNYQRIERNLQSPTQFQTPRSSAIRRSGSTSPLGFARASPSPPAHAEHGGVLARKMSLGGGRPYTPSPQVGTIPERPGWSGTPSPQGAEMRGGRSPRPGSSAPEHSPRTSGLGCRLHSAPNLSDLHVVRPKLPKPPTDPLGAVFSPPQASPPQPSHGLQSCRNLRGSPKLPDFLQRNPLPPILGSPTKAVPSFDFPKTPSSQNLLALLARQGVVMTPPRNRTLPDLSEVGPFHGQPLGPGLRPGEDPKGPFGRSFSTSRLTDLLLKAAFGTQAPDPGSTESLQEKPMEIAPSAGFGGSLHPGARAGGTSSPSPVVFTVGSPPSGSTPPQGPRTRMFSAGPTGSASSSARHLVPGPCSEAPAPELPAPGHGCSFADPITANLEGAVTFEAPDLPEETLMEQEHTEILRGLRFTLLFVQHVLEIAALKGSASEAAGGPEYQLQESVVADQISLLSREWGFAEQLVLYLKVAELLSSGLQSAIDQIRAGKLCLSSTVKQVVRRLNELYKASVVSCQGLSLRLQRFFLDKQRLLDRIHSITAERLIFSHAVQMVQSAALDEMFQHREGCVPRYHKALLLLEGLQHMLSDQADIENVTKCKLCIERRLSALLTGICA
Data set [32] addresses Serine/threonine-protein kinase ULK2 (Homo sapiens) (UniProt Q8IYT8). Kind of data set: Inhibition of human ULK2 using myelin basic protein as substrate at 1 uM in presence of 32P-ATP by Hotspot assay relative to control; values are per cent of control.
Data set [33] addresses Serine/threonine-protein kinase ULK3 (Homo sapiens) (UniProt Q6PHR2). Kind of data set: Inhibition of human ULK3 using myelin basic protein as substrate at 1 uM in presence of 32P-ATP by Hotspot assay relative to control; values are per cent of control.

Each structure is given as a SMILES string. The source made the active and inactive calls. No cut-off for these calls is given here.

The residual activity is the signal under treatment as a percentage of the control signal.

Sequence of Serine/threonine-protein kinase ULK2 (Homo sapiens) (Q8IYT8 whole entry): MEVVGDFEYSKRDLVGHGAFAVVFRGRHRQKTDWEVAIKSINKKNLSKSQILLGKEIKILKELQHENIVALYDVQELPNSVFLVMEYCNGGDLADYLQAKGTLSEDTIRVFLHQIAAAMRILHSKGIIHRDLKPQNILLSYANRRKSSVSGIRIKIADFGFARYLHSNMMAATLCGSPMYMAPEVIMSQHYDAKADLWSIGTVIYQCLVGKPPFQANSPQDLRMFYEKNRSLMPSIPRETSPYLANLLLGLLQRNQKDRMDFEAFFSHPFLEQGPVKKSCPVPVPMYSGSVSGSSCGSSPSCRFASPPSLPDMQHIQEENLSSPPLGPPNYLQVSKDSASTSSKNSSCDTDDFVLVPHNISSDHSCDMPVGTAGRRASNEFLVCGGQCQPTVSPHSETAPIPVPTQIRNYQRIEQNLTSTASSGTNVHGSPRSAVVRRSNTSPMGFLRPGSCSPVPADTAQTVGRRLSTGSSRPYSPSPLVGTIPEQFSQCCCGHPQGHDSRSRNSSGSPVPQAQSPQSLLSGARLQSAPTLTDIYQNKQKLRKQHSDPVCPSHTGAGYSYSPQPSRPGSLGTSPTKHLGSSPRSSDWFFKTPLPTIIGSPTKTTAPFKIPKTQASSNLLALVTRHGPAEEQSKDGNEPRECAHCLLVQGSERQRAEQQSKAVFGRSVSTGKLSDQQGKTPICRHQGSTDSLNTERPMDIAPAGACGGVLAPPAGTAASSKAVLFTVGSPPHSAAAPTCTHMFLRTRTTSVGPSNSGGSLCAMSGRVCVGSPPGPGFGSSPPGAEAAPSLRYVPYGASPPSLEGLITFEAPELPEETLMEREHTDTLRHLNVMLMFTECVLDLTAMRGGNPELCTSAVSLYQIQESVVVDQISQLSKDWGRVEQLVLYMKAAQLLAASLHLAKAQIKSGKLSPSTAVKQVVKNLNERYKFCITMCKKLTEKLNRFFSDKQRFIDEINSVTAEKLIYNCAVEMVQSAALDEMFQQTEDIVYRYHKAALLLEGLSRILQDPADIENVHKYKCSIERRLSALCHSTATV
Sequence of Serine/threonine-protein kinase ULK3 (Homo sapiens) (Q6PHR2 whole entry): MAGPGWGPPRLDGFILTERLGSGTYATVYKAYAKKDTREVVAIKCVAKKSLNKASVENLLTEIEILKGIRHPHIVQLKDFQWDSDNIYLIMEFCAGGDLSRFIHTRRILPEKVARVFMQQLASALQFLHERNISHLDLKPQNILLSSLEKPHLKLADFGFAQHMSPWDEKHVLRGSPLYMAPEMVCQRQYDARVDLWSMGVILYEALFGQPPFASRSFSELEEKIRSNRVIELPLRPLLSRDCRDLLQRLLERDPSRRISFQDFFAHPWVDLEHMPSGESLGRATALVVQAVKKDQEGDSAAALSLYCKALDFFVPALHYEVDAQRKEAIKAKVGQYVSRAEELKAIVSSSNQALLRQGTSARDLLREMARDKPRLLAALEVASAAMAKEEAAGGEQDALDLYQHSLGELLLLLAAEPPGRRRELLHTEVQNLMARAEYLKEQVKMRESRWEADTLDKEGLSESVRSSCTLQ

With `CC(C)S(=O)(=O)c1ccc2nccc(Nc3ccc4scnc4c3)c2c1`, the inhibition result in the data set on L929 [1] was “inactive”. Moreover, the inhibition result in the data set on SVEC4-10 and in the data set with 3T3SA [15] was “Active” throughout. The result (in the data set on 3T3SA [2]; in [20]) was Active. Besides, the Activity with 3T3SA [3] is 29%; in the data set on 3T3SA [4], “Toxic”; with 3T3SA [5], “Toxic”; with 3T3SA [6], “Toxic”; in the data set on 3T3SA [7], 3%; in the data set on L929 [8], “Non-Toxic”. Further, the Activity entry is “Non-Toxic” in the data set on MEF [9]; “Non-Toxic” in the data set with 3T3SA [10]; “Non-Toxic” in the data set with 3T3SA [11]; “Toxic” with 3T3SA [12]; “Toxic” in the data set on 3T3SA [13]; “Non-Toxic” with MEF [14]. For the same compound, the Activity entry with MEF [16] is recorded as “Non-Toxic”; in the data set on MEF [17], “Non-Toxic”; with MEF [18] it was “Toxic”; with MEF [19], “Toxic”; in the data set with MEF [21], “Toxic”; in the data set with 3T3SA [22], “Non-Toxic”. The Activity entry in the data set on 3T3SA [23] is reported as “Non-Toxic”; with 3T3SA [24], “Non-Toxic”; in the data set with 3T3SA [25], “Non-Toxic”; with 3T3SA [26] it was “Non-Toxic”; with 3T3SA [27] it was “Non-Toxic”; in the data set with MEF [28], “Toxic”. The Activity entry in the data set with MEF [29] and with MEF [30] was “Toxic” in each case.

Turning to `CNC(=O)c1ccc2c(c1)ncn2-c1ccc(CC(=O)OC(C)(C)C)cc1`, the residual activity stood at 104% in data set [31], 96.1% in [32] and 95.4% in data set [33].
